Results reported in BindingDB's records for doi:10.7270/Q2MP51PC (Pcmd, 2008).

molecular target: T1, Complement C1s subcomponent (Homo sapiens, UniProt P09871); assay: C1s inhibitor IC50 values, dose response, biochemical (AID 787)
T1 sequence (P09871 whole entry): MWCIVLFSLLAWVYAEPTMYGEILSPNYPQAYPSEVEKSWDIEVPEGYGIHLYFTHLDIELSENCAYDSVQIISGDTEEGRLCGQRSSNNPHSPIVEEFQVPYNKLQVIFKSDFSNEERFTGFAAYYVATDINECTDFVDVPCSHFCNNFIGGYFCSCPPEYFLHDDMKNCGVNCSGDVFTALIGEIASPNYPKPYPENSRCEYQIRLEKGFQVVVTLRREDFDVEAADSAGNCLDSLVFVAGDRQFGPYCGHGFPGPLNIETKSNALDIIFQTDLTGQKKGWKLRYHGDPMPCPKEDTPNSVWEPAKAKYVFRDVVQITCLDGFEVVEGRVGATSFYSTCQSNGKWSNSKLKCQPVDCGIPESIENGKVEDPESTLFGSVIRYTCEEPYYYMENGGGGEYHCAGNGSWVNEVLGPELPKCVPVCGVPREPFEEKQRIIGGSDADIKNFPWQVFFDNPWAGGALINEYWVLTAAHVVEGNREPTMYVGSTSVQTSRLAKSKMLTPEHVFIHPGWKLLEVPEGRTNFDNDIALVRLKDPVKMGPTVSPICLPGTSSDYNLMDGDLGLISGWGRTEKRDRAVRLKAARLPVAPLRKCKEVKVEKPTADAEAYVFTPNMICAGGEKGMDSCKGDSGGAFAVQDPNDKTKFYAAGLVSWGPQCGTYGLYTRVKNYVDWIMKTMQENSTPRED

**Q.** For `Cc1ccc(S(=O)(=O)n2nc(OC(=O)c3cccs3)cc2N)cc1`, which IC50 is on record?
**A.** Its IC50 is greater than 50 µM.

**Q.** How did the IC50 turn out when `CCOC(=O)c1c(C)n(C(=O)c2ccco2)c(=O)n1C(=O)c1ccco1` was run?
**A.** The IC50 was 8.54 µM.

**Q.** How did the IC50 turn out when `C#CCOC(=O)c1ccccc1C(=O)n1nnc2ccccc21` was run?
**A.** The IC50 was 4.26 µM.

**Q.** `CCSc1ccccc1C(=O)n1nnc2ccccc21` was tested. Which IC50 did it give?
**A.** The IC50 was 31 µM.

**Q.** How did the IC50 turn out when `O=C(c1ccc2c(c1)OCO2)n1nnc2ccccc21` was run?
**A.** The IC50 was 0.85 µM.

**Q.** Which IC50 does the source give for `O=C(O)[C@@H](c1ccccc1)N1Cc2ccccc2C1=O` here?
**A.** The IC50 was greater than 50 µM.

**Q.** `O=C(O)COCc1nc2ccccc2[nH]1` was tested. Which IC50 did it give?
**A.** The IC50 was greater than 50 µM.

**Q.** `COc1cccc(C2=Nc3nnnn3C(c3cccc(OC)c3OC)C2)c1` (stereo not given) was tested. Which IC50 did it give?
**A.** Its IC50 is greater than 50 µM.

**Q.** With `COc1cccc(N2C(=O)N(c3ccccc3Cl)C3CS(=O)(=O)CC32)c1` (stereo not given) [1-(2-chlorophenyl)-3-(3-methoxyphenyl)tetrahydro-1H-thieno[3,4-d]imidazol-2(3H)-one 5,5-dioxide] as the molecule, how does the IC50 read?
**A.** Its IC50 is greater than 50 µM.

**Q.** `CCN1CCN(c2ccc(-n3c(C)nc4c(cnn4-c4ccccc4Cl)c3=O)cc2)CC1` [1-(2-chlorophenyl)-5-[4-(4-ethyl-1-piperazinyl)phenyl]-6-methyl-4-pyrazolo[3,4-d]pyrimidinone] was tested. Which IC50 did it give?
**A.** The IC50 was greater than 50 µM.

**Q.** For `COc1ccc(-c2nc(SC)n(C(=O)c3ccco3)n2)cc1` [1-(2-furoyl)-3-(4-methoxyphenyl)-5-(methylthio)-1H-1,2,4-triazole], which IC50 is on record?
**A.** Its IC50 is 15.6 µM.

**Q.** For `O=C(c1ccco1)N1C(=O)c2cccc3cccc1c23` [1-(2-furoyl)benzo[cd]indol-2(1H)-one], which IC50 is on record?
**A.** Its IC50 is greater than 50 µM.

**Q.** With `CCOC(=O)C1CCN(C(=O)c2cc(OCC)c(OCC)c(OCC)c2)CC1` [1-(3,4,5-triethoxybenzoyl)isonipecotic acid ethyl ester] as the molecule, how does the IC50 read?
**A.** The IC50 was greater than 50 µM.

**Q.** `O=C(c1csc2c1CCCC2)n1cccn1` [1-(4,5,6,7-tetrahydro-1-benzothien-3-ylcarbonyl)-1H-pyrazole] was tested. Which IC50 did it give?
**A.** Its IC50 is 3.83 µM.

**Q.** For `CCOC(=O)c1nnn(-c2nonc2N)c1CN(C)C1CCCCC1` [1-(4-amino-1,2,5-oxadiazol-3-yl)-5-[[cyclohexyl(methyl)amino]methyl]-4-triazolecarboxylic acid ethyl ester], which IC50 is on record?
**A.** The IC50 was greater than 50 µM.

**Q.** Which IC50 does the source give for `CCOc1ccc(-n2c(O)cc(N3CCN(c4ccccc4F)CC3)c2O)cc1` [1-(4-ethoxyphenyl)-3-[4-(2-fluorophenyl)-1-piperazinyl]-2,5-pyrrolidinedione] here?
**A.** Its IC50 is greater than 50 µM.

**Q.** How did the IC50 turn out when `Cc1ccc(Cn2ncc3c(N4CCN(c5ccccc5C)CC4)ncnc32)cc1` [1-(4-methylbenzyl)-4-[4-(2-methylphenyl)-1-piperazinyl]-1H-pyrazolo[3,4-d]pyrimidine] was run?
**A.** The IC50 was greater than 50 µM.

**Q.** Which IC50 does the source give for `CC(C)CN(CC(C)C)S(=O)(=O)N1CCC(C(=O)NCc2ccc(F)cc2)CC1` [1-(diisobutylsulfamoyl)-N-(4-fluorobenzyl)isonipecotamide] here?
**A.** Its IC50 is greater than 50 µM.

**Q.** How did the IC50 turn out when `CCOC(=O)C1CCN(C(=O)CSc2ccccc2)CC1` [1-[1-oxo-2-(phenylthio)ethyl]-4-piperidinecarboxylic acid ethyl ester] was run?
**A.** The IC50 was greater than 50 µM.

**Q.** With `COc1cc(-c2nnc(SCC(=O)c3cc(C)n(CC4CCCO4)c3C)o2)cc(OC)c1OC` (stereo not given) [1-[2,5-dimethyl-1-(2-oxolanylmethyl)-3-pyrrolyl]-2-[[5-(3,4,5-trimethoxyphenyl)-1,3,4-oxadiazol-2-yl]thio]ethanone] as the molecule, how does the IC50 read?
**A.** The IC50 was greater than 50 µM.

**Q.** Which IC50 does the source give for `CCCC(=O)n1nc(-c2ccco2)nc1SCc1ccccc1` [1-[3-(2-furanyl)-5-(phenylmethylthio)-1,2,4-triazol-1-yl]-1-butanone] here?
**A.** The IC50 was greater than 50 µM.

**Q.** For `CCC(=O)n1nc(-c2ccco2)nc1SCc1ccccc1` [1-[3-(2-furanyl)-5-(phenylmethylthio)-1,2,4-triazol-1-yl]-1-propanone], which IC50 is on record?
**A.** Its IC50 is greater than 50 µM.

**Q.** Which IC50 does the source give for `COc1ccc(C(=O)n2nnc3ccccc32)cc1Br` [1-benzotriazolyl-(3-bromo-4-methoxyphenyl)methanone] here?
**A.** Its IC50 is 5.59 µM.

**Q.** How did the IC50 turn out when `Cn1c(=O)c2[nH]c(NCC3CCCO3)nc2n(-c2ccccc2)c1=O` (stereo not given) [1-methyl-8-(2-oxolanylmethylamino)-3-phenyl-7H-purine-2,6-dione] was run?
**A.** Its IC50 is greater than 50 µM.

**Q.** `O=C(Nc1cccc(F)c1)c1c(F)c(F)c(F)c(F)c1F` [2,3,4,5,6-pentafluoro-N-(3-fluorophenyl)benzamide] was tested. Which IC50 did it give?
**A.** The IC50 was greater than 50 µM.

**Q.** For `Cc1nc(CNS(=O)(=O)c2cc(C)c(C)cc2C)cs1` [2,4,5-trimethyl-N-[(2-methyl-1,3-thiazol-4-yl)methyl]benzenesulfonamide], which IC50 is on record?
**A.** Its IC50 is greater than 50 µM.

**Q.** How did the IC50 turn out when `O=C1CCCC2=NC(Nc3nc4ccccc4o3)=NC3(CCCCC3)C12` (stereo not given) [2-(1,3-benzoxazol-2-ylamino)-5-spiro[1,6,7,8-tetrahydroquinazoline-4,1'-cyclohexane]one] was run?
**A.** Its IC50 is greater than 50 µM.

**Q.** With `COCCn1c(C)cc(C(=O)CSc2nc3ccccc3o2)c1C` [2-(1,3-benzoxazol-2-ylsulfanyl)-1-[1-(2-methoxyethyl)-2,5-dimethyl-pyrrol-3-yl]ethanone] as the molecule, how does the IC50 read?
**A.** Its IC50 is greater than 50 µM.

**Q.** `Cc1sc2nc(-c3ccco3)oc(=O)c2c1C` [2-(2-furanyl)-5,6-dimethyl-4-thieno[2,3-d][1,3]oxazinone] was tested. Which IC50 did it give?
**A.** The IC50 was greater than 50 µM.

**Q.** `Cc1c(NC(=O)C2Cc3ccccc3CN2C(=O)c2ccco2)c(=O)n(-c2ccccc2)n1C` (stereo not given) [2-(2-furoyl)-N-(3-keto-1,5-dimethyl-2-phenyl-3-pyrazolin-4-yl)-3,4-dihydro-1H-isoquinoline-3-carboxamide] was tested. Which IC50 did it give?
**A.** Its IC50 is greater than 50 µM.

**Q.** Which IC50 does the source give for `Cc1cc(NS(=O)(=O)c2ccc(NC(=O)COc3ccccc3C(C)C)cc2)no1` [2-(2-isopropylphenoxy)-N-[4-[(5-methylisoxazol-3-yl)sulfamoyl]phenyl]acetamide] here?
**A.** The IC50 was greater than 50 µM.

**Q.** Which IC50 does the source give for `COc1ccc(CC(=O)Nc2cccc(-c3nnc(-c4cccc(C)c4)o3)c2)cc1OC` [2-(3,4-dimethoxyphenyl)-N-[3-[5-(3-methylphenyl)-1,3,4-oxadiazol-2-yl]phenyl]acetamide] here?
**A.** The IC50 was greater than 50 µM.

**Q.** For `CC(=O)c1cn(CC(=O)NCc2ccc3c(c2)OCO3)c2ccccc12` [2-(3-acetyl-1-indolyl)-N-(1,3-benzodioxol-5-ylmethyl)acetamide], which IC50 is on record?
**A.** Its IC50 is greater than 50 µM.

**Q.** For `COC(=O)COc1cccc(NC(=O)c2ccccc2)c1` [2-(3-benzamidophenoxy)acetic acid methyl ester], which IC50 is on record?
**A.** The IC50 was greater than 50 µM.

**Q.** With `Cc1cc(C)c2c(CC(=O)NCc3ccco3)coc2c1` [2-(4,6-dimethyl-1-benzofuran-3-yl)-N-(2-furylmethyl)acetamide] as the molecule, how does the IC50 read?
**A.** The IC50 was greater than 50 µM.

**Q.** For `CN(C)c1ccc(C(=O)c2ccccc2C(=O)O)c(O)c1` [2-(4-Dimethylamino-2-hydroxy-benzoyl)-benzoic acid], which IC50 is on record?
**A.** The IC50 was greater than 50 µM.

**Q.** With `O=C(O)CCCC(=O)Nc1ccccc1C(=O)O` [2-(4-carboxybutanoylamino)benzoic acid] as the molecule, how does the IC50 read?
**A.** Its IC50 is greater than 50 µM.

**Q.** How did the IC50 turn out when `COc1ccc(NC(=O)CSC2CCCCC2)cc1` [2-(cyclohexylthio)-N-(4-methoxyphenyl)acetamide] was run?
**A.** The IC50 was greater than 50 µM.

**Q.** How did the IC50 turn out when `O=C(Cc1ccc(-c2ccccc2)cc1)NCCN1CCOCC1` [2-Biphenyl-4-yl-N-(2-morpholin-4-yl-ethyl)-acetamide] was run?
**A.** The IC50 was greater than 50 µM.

**Q.** Which IC50 does the source give for `O=c1oc(-c2ccco2)nc2ccccc12` [2-Furan-2-yl-benzo[d][1,3]oxazin-4-one] here?
**A.** Its IC50 is 4.62 µM.

**Q.** With `Cc1nn(C)c(C)c1NC(=O)c1ccnn1C` [2-Methyl-2H-pyrazole-3-carboxylic acid (1,3,5-trimethyl-1H-pyrazol-4-yl)-amide] as the molecule, how does the IC50 read?
**A.** The IC50 was greater than 50 µM.

**Q.** With `CC(C)(C)NC(=O)C(c1ccco1)N(Cc1ccc2c(c1)OCO2)C(=O)Cn1nnc2ccccc21` (stereo not given) [2-[1,3-benzodioxol-5-ylmethyl-[2-(1-benzotriazolyl)-1-oxoethyl]amino]-N-tert-butyl-2-(2-furanyl)acetamide] as the molecule, how does the IC50 read?
**A.** The IC50 was greater than 50 µM.

**Q.** With `CCOc1ccc(NC(=O)CN2CCN(CC(=O)Nc3ccc4c(c3)OCO4)CC2)cc1` [2-[4-[2-(1,3-benzodioxol-5-ylamino)-2-keto-ethyl]piperazino]-N-p-phenetyl-acetamide] as the molecule, how does the IC50 read?
**A.** Its IC50 is greater than 50 µM.

**Q.** How did the IC50 turn out when `CCOC(=O)COc1ccc(S(=O)(=O)NCCC2=CCCCC2)cc1` [2-[4-[2-(1-cyclohexenyl)ethylsulfamoyl]phenoxy]acetic acid ethyl ester] was run?
**A.** The IC50 was greater than 50 µM.

**Q.** Which IC50 does the source give for `O=C(CN1CCN(CC(=O)Nc2ccccn2)CC1)Nc1ccccn1` [2-[4-[2-keto-2-(2-pyridylamino)ethyl]piperazino]-N-(2-pyridyl)acetamide] here?
**A.** The IC50 was greater than 50 µM.

**Q.** Which IC50 does the source give for `CCOC(=O)Cc1nnc(NC(=O)C(CC)Sc2nnc3c4ccccc4n(C)c3n2)s1` (stereo not given) [2-[5-[2-[(5-methyl-[1,2,4]triazin[5,6-b]indol-3-yl)thio]butanoylamino]-1,3,4-thiadiazol-2-yl]acetic acid ethyl ester] here?
**A.** Its IC50 is greater than 50 µM.

**Q.** How did the IC50 turn out when `COC(=O)Cc1n[nH]c2c1C1(C(=O)N(Cc3ccccc3)c3ccccc31)C(C#N)C(=N)O2` (stereo not given) [2-[6-amino-5-cyano-2'-oxo-1'-(phenylmethyl)-3-spiro[2H-pyrano[2,3-c]pyrazole-4,3'-indole]yl]acetic acid methyl ester] was run?
**A.** Its IC50 is greater than 50 µM.

**Q.** `Cc1ccc(-n2c(SCC(=O)N3CCCC3)nc3c(c2=O)SCC3)cc1` [2-[(2-keto-2-pyrrolidino-ethyl)thio]-3-(p-tolyl)-6,7-dihydrothieno[3,2-d]pyrimidin-4-one] was tested. Which IC50 did it give?
**A.** Its IC50 is greater than 50 µM.

**Q.** For `CCOC(=O)COc1nc(OC)nc(N2CCOCC2)n1` [2-[(4-methoxy-6-morpholino-s-triazin-2-yl)oxy]acetic acid ethyl ester], which IC50 is on record?
**A.** Its IC50 is greater than 50 µM.

**Q.** Which IC50 does the source give for `CCOC(=O)c1c(-c2ccc(C)o2)csc1NC(=O)CN1CCN(CC)CC1` [2-[[2-(4-ethyl-1-piperazinyl)-1-oxoethyl]amino]-4-(5-methyl-2-furanyl)-3-thiophenecarboxylic acid ethyl ester] here?
**A.** The IC50 was greater than 50 µM.
